Assay results as given in patent US8614208B2, “Fused heterocyclic ring derivative and use thereof” (Takeda Pharmaceutical Company Limited, priority 2009, dated 2013).

Biological target: T1, Smo (Mus musculus, UniProt P56726)
T1 construct: endogenous in cells; host or cells: NIH-3T3 cells stably carrying the Gli reporter plasmid
Test: Gli reporter luciferase assay in NIH-3T3/Gli reporter cells stimulated with mouse Shh-N end fragment
Format: cell-based
Conditions: NIH3T3; 1 μM compound; NIH-3T3/Gli reporter cells with mouse Shh-N culture supernatant, 48 hr; luciferase activity, control without compound as 100; read-out: inhibitory rate (%) at 1 μM
Protocol: Gli reporter plasmid was constructed by inserting 8×Gli-binding site and chicken δ-crystalline promoter into the upstream of luc+ of pGL3 (Promega).
prepared in reference to the base sequence described in GenBank accession No.; X02187, and chicken genome DNA (Clontech) as a template. PCR reaction was performed using Pfu Turbo (Stratagene) and following the attached protocol. The obtained 108 bp fragment was digested with restriction enzymes BglII and HindIII, and inserted into BglII-HindIII site of pGL3 to give plasmid pGL3/δ-cry promoter.
As 8×Gli-binding site, a sequence containing eight 9-bp Gli bound consensus sequences (GACCACCCA) described in Yoon et al., J. Biol. Chem., vol. 273, pages 3496-3501 (1998) was prepared from synthetic DNA. That is, two synthetic DNAs,
were heat treated at 95° C. for 2 minutes, and incubated at 37° C. for 1 hr for annealing to give a double stranded DNA of the above-mentioned two synthetic DNAs. The obtained double stranded DNA was digested with restriction enzymes BglII and KpnI, and the obtained DNA fragment was inserted into BglII-KpnI site of pGL3/δ-cry promoter to construct plasmid pGL3/δ-cry promoter, 8×Gli binding site, i.e., Gli reporter plasmid.
HEK293 cells were grown in D-MEM medium (Invitrogen) containing 10% fetal bovine serum in a 10 cm dish and pcDNA3.1/mShh-N was introduced into the cells using FuGENE6 (Roche Applied Science). Thereafter, the HEK293 cells were cultured in a carbon dioxide gas incubator at 37° C. for 24 hours, and the medium was exchanged with D-MEM medium (Invitrogen) containing 2% fetal bovine serum. After culturing for 48 hr, a culture supernatant containing recombinant type mouse Shh-N end fragment was obtained by filtration using a filter ([…]).
Using D-MEM (Invitrogen) containing 10% fetal bovine serum, expression plasmid pcDNA3.1 and Gli reporter plasmid (pGL3/δ-cry promoter, 8×Gli binding site) produced by the method of Experimental Example 1 were introduced into NIH-3T3 cells grown in a 10 cm dish by the use of FuGENE6 (Roche Applied Science).
After culture for 24 hr, the cells were recovered, suspended in D-MEM medium containing 10% fetal bovine serum and supplemented with Geneticin (Life Technologies Oriental, Inc.) to a final concentration of 500 μg/ml, diluted to 10^4 cells/ml, plated on a 96 well plate, and cultured in a carbon dioxide gas incubator at 37° C. to give Geneticin resistant transformed cell line.
The obtained transformed cell line was cultured in a 96 well plate, mouse Shh-N end fragment obtained in Experimental Example 3 was added, and NIH-3T3/Gli reporter cell, which is a cell line capable of induction of luciferase expression, was selected.
NIH-3T3/Gli reporter cells cultured in D-MEM (Invitrogen) containing 10% fetal bovine serum were plated in a 96 well white plate at 1×10^4 cells/well, and cultured overnight in a carbon dioxide gas incubator at 37° C. The medium was removed, a compound (50 μl) and culture supernatant of mouse Shh-N end fragment-expressing HEK293 (D-MEM medium containing 2% fetal bovine serum, 50 μl) were added, and the cells were cultured for 48 hr in a carbon dioxide gas incubator at 37° C. Bright-Glo (Promega, 50 μl) was added, and the mixture was stirred, after which luciferase activity was measured by EnVision (PerkinElmer). The inhibition rate was calculated based on the luciferase activity of the control without addition of the compound as 100.

T1 sequence (P56726 33-793): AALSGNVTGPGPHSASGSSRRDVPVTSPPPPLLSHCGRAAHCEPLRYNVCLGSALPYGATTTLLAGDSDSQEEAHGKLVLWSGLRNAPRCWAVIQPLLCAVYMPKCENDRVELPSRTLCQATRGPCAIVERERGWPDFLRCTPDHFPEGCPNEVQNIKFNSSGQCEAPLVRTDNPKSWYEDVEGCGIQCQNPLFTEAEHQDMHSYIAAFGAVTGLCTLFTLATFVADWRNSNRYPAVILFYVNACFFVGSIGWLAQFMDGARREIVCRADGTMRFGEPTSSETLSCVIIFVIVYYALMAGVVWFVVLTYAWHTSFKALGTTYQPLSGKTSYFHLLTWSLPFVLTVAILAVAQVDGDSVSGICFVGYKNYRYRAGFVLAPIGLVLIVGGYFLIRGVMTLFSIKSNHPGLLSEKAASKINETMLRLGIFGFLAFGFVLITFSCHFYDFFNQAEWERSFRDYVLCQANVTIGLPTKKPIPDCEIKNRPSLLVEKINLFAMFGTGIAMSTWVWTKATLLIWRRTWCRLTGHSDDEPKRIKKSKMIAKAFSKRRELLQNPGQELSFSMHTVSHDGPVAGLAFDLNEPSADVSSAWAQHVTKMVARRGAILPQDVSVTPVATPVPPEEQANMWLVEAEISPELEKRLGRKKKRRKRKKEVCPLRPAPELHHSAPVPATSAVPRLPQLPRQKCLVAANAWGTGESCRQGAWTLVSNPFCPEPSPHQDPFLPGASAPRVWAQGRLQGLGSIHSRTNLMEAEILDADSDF

Row | SMILES | inhibition at 1 µM [%]
1 | Cc1nc2c(c(OCC(F)(F)F)c(C(=O)NC3CCN(C(=O)CO)CC3)n2C)c(=O)n1CCc1ccccc1 [Example 12, N-[1-(hydroxyacetyl)piperidin-4-yl]-2,7-dimethyl-4-oxo-3-(2-phenylethyl)-5-(2,2,2-trifluoroethoxy)-4,7-dihydro-3H-pyrrolo[2,3-d]pyrimidine-6-carboxamide] | 98
2 | CCOc1c(C(=O)NC2CCN(C(=O)CO)CC2)n(C)c2nc(C)n(CC(=O)c3ccccc3)c(=O)c12 [Example 2, 5-ethoxy-N-[1-(hydroxyacetyl)piperidin-4-yl]-2,7-dimethyl-4-oxo-3-(2-oxo-2-phenylethyl)-4,7-dihydro-3H-pyrrolo[2,3-d]pyrimidine-6-carboxamide] | 95
3 | Cc1nc2c(c(OCC(F)(F)F)c(C(=O)NC3CCN(C(=O)CO)CC3)n2C)c(=O)n1CC(=O)c1ccccc1 [Example 1, N-[1-(hydroxyacetyl)piperidin-4-yl]-2,7-dimethyl-4-oxo-3-(2-oxo-2-phenylethyl)-5-(2,2,2-trifluoroethoxy)-4,7-dihydro-3H-pyrrolo[2,3-d]pyrimidine-6-carboxamide] | 98
4 | CCCCCn1c(C)nc2c(c(OCC(F)(F)F)c(C(=O)NC3CCN(C(=O)CO)CC3)n2C)c1=O [Example 11, N-[1-(hydroxyacetyl)piperidin-4-yl]-2,7-dimethyl-4-oxo-3-pentyl-5-(2,2,2-trifluoroethoxy)-4,7-dihydro-3H-pyrrolo[2,3-d]pyrimidine-6-carboxamide] | 96
5 | Cc1nc2c(c(OCC(F)(F)F)c(C(=O)NC3CCN(C(=O)CO)CC3)n2C)c(=O)n1Cc1ccc(F)cc1 [Example 5, 3-(4-fluorobenzyl)-N-[1-(hydroxyacetyl)piperidin-4-yl]-2,7-dimethyl-4-oxo-5-(2,2,2-trifluoroethoxy)-4,7-dihydro-3H-pyrrolo[2,3-d]pyrimidine-6-carboxamide] | 100
6 | Cc1nc2c(c(OCC(F)(F)F)c(C(=O)NC3CCN(C(=O)CO)CC3)n2C)c(=O)n1Cc1cccc(Cl)c1 [Example 10, 3-(3-chlorobenzyl)-N-[1-(hydroxyacetyl)piperidin-4-yl]-2,7-dimethyl-4-oxo-5-(2,2,2-trifluoroethoxy)-4,7-dihydro-3H-pyrrolo[2,3-d]pyrimidine-6-carboxamide] | 98
7 | CCc1nc2c(c(OCC(F)(F)F)c(C(=O)NC3CCN(C(=O)CO)CC3)n2C)c(=O)n1CC(=O)c1ccccc1 [Example 13, 2-ethyl-N-[1-(hydroxyacetyl)piperidin-4-yl]-7-methyl-4-oxo-3-(2-oxo-2-phenylethyl)-5-(2,2,2-trifluoroethoxy)-4,7-dihydro-3H-pyrrolo[2,3-d]pyrimidine-6-carboxamide] | 97
8 | Cc1nc2c(c(OCC(F)(F)F)c(C(=O)NC3CCN(C(=O)CO)CC3)n2C)c(=O)n1Cc1ccccc1 [Example 4, 3-benzyl-N-[1-(hydroxyacetyl)piperidin-4-yl]-2,7-dimethyl-4-oxo-5-(2,2,2-trifluoroethoxy)-4,7-dihydro-3H-pyrrolo[2,3-d]pyrimidine-6-carboxamide] | 98
9 | COc1ccccc1Cn1c(C)nc2c(c(OCC(F)(F)F)c(C(=O)NC3CCN(C(=O)CO)CC3)n2C)c1=O [Example 8, N-[1-(hydroxyacetyl)piperidin-4-yl]-3-(2-methoxybenzyl)-2,7-dimethyl-4-oxo-5-(2,2,2-trifluoroethoxy)-4,7-dihydro-3H-pyrrolo[2,3-d]pyrimidine-6-carboxamide] | 96
10 | Cc1nc2c(c(OCC(F)(F)F)c(C(=O)NC3CCN(C(=O)CO)CC3)n2C)c(=O)n1Cc1ccc(Cl)cc1 [Example 9, 3-(4-chlorobenzyl)-N-[1-(hydroxyacetyl)piperidin-4-yl]-2,7-dimethyl-4-oxo-5-(2,2,2-trifluoroethoxy)-4,7-dihydro-3H-pyrrolo[2,3-d]pyrimidine-6-carboxamide] | 95

Other lines, results leading:

Row | inhibition at 1 µM [%] | SMILES
11 | 96 | CCc1nc2c(c(OCC(F)(F)F)c(C(=O)NC3CCN(C(=O)CO)CC3)n2C)c(=O)n1CC(=O)c1ccc(F)cc1 [Example 33, 2-ethyl-3-[2-(4-fluorophenyl)-2-oxoethyl]-N-[1-(hydroxyacetyl)piperidin-4-yl]-7-methyl-4-oxo-5-(2,2,2-trifluoroethoxy)-4,7-dihydro-3H-pyrrolo[2,3-d]pyrimidine-6-carboxamide]
12 | 97 | CCc1nc2c(c(OCC(F)(F)F)c(C(=O)NC3CCOCC3)n2C)c(=O)n1CC(=O)c1ccccc1 [Example 16, 2-ethyl-7-methyl-4-oxo-3-(2-oxo-2-phenylethyl)-N-(tetrahydro-2H-pyran-4-yl)-5-(2,2,2-trifluoroethoxy)-4,7-dihydro-3H-pyrrolo[2,3-d]pyrimidine-6-carboxamide]
13 | 98 | CCc1nc2c(c(OC(C)C)c(C(=O)NC3CCN(C(=O)CO)CC3)n2C)c(=O)n1CC(=O)c1ccccc1 [Example 22, 2-ethyl-N-[1-(hydroxyacetyl)piperidin-4-yl]-7-methyl-5-(1-methylethoxy)-4-oxo-3-(2-oxo-2-phenylethyl)-4,7-dihydro-3H-pyrrolo[2,3-d]pyrimidine-6-carboxamide]
14 | 97 | CCc1nc2c(c(OCC(F)(F)F)c(C(=O)NC3CC[S+]([O-])CC3)n2C)c(=O)n1CC(=O)c1ccccc1 (stereo not shown) [Example 21, 2-ethyl-7-methyl-N-(1-oxidetetrahydro-2H-thiopyran-4-yl)-4-oxo-3-(2-oxo-2-phenylethyl)-5-(2,2,2-trifluoroethoxy)-4,7-dihydro-3H-pyrrolo[2,3-d]pyrimidine-6-carboxamide]
15 | 95 | Cc1nc2c(c(OCC(F)(F)F)c(C(=O)NC3CCN(C(=O)CO)CC3)n2C)c(=O)n1Cc1ccccc1Cl [Example 14, 3-(2-chlorobenzyl)-N-[1-(hydroxyacetyl)piperidin-4-yl]-2,7-dimethyl-4-oxo-5-(2,2,2-trifluoroethoxy)-4,7-dihydro-3H-pyrrolo[2,3-d]pyrimidine-6-carboxamide]
16 | 98 | CCc1nc2c(c(OCC(F)(F)F)c(C(=O)NC3CCN(C(=O)CO)CC3)n2C)c(=O)n1Cc1cccc(Cl)c1 [Example 17, 3-(3-chlorobenzyl)-2-ethyl-N-[1-(hydroxyacetyl)piperidin-4-yl]-7-methyl-4-oxo-5-(2,2,2-trifluoroethoxy)-4,7-dihydro-3H-pyrrolo[2,3-d]pyrimidine-6-carboxamide]
17 | 99 | Cc1nc2c(c(OC(C)C)c(C(=O)NC3CCN(C(=O)CO)CC3)n2C)c(=O)n1-c1ccccc1 [Example 29, N-[1-(hydroxyacetyl)piperidin-4-yl]-2,7-dimethyl-5-(1-methylethoxy)-4-oxo-3-phenyl-4,7-dihydro-3H-pyrrolo[2,3-d]pyrimidine-6-carboxamide]
18 | 97 | Cc1nc2c(c(OCC(F)(F)F)c(C(=O)NC3CCN(C(=O)CO)CC3)n2C)c(=O)n1CCc1ccc(F)cc1 [Example 15, 3-[2-(4-fluorophenyl)ethyl]-N-[1-(hydroxyacetyl)piperidin-4-yl]-2,7-dimethyl-4-oxo-5-(2,2,2-trifluoroethoxy)-4,7-dihydro-3H-pyrrolo[2,3-d]pyrimidine-6-carboxamide]
19 | 97 | CCOc1c(C(=O)NC2CCN(C(=O)CO)CC2)sc2nc(C)n(CC(=O)c3ccccc3)c(=O)c12 [Example 18, 5-ethoxy-N-[1-(hydroxyacetyl)piperidin-4-yl]-2-methyl-4-oxo-3-(2-oxo-2-phenylethyl)-3,4-dihydrothieno[2,3-d]pyrimidine-6-carboxamide]
